Experimental data as given in patent US8119624B2, “Fused phenyl amido heterocyclic compounds” (Pfizer Inc., priority 2006, dated 2012).
Like-named read-outs stand apart in the source and are kept apart here.

Molecular target: T1, Full-length glucokinase (beta cell isoform) (Homo sapiens, UniProt P35557)
T1 construct: Full-length glucokinase (beta cell isoform) was His-tagged at N-terminus; His tag (N); made in house
T1 sequence (P35557 1-465): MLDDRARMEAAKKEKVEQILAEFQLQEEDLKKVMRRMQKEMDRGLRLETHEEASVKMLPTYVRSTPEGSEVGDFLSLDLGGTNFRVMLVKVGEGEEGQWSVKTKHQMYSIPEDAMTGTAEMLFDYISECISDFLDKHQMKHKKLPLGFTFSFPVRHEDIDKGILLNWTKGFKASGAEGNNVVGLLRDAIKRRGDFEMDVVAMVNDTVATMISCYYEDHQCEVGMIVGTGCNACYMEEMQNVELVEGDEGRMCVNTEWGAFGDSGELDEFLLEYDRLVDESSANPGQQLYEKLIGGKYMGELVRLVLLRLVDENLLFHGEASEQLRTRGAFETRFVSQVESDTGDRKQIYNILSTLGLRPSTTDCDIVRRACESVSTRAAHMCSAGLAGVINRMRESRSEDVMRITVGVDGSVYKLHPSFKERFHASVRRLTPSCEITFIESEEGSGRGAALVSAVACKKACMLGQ
Experiment: Glucokinase biochemical assay (PK/LDH-coupled, NADH depletion at 340 nm): % activation, EC50, % max activation
Conditions: 5 mM glucose; for activation at 10 µM: read-out: % Activation at 10 uM; for EC50: read-out: EC50; for Emax / % Max Activation: fitted maximum activation; for Emax: read-out: % Max Activation
Method: Full-length glucokinase (beta cell isoform) was His-tagged at N-terminus and purified by a Ni column followed by size exclusion chromatography. Glucose was obtained from Calbiochem, and other reagents were from Sigma.
All assays were performed in a Corning 96-well plate using Spectramax PLUS spectrophotometer (Molecular Devices) at room temperature. The final assay volume was 100 uL. The buffer conditions used in this assay were as follows: 50 mM HEPES, 5 mM glucose, 1 mM ATP, 2 mM MgCl2, 0.7mM NADH, 2 mM DTT, 1 Unit/mL PK/LDH, 0.2 mM phosphoenolpyruvate, 25 mM KCl. Tested compound in DMSO solution was added to the buffer and mixed well by a plate shaker for 1 minute. The final concentration of DMSO introduced into the assay was 1%.
Glucokinase was added to the buffer mixture to initiate the reaction in the presence and absence of compound. Reaction was monitored by absorbance at 340nm due to the depletion of NADH. The initial reaction velocity was measured by the slope of a linear time course of 200-900 sec.
The percentage of activation was calculated by the following equation: % Activation=(Va/Vo−1)×100;
wherein each of Va and Vo is defined as the initial reaction velocity in the presence and absence of the tested compound, respectively.
The GK activities were measured as a function of compound concentrations.

[1] = 10 uM compound, % Activation=(Va/Vo−1)×100
[2] = compound at 10 uM, 1 mM ATP, room temperature

| SMILES | activation at 10 µM [1] [%] | EC50 (GK activation) [nM] | Emax [%] | further results |
| --- | --- | --- | --- | --- |
| Cn1ncc(NC(=O)c2cc(Oc3ccc(C(=O)N4CCC4)c(F)c3)c3c(c2)OC(C)(C)C3)n1 [Example 159, 4-[4-(Azetidine-1-carbonyl)-3-fluoro-phenoxy]-2,2-dimethyl-2,3-dihydro-benzofuran-6-carboxylic acid (2-methyl-2H-[1,2,3]triazol-4-yl)-amide] | 243 | 150 | 260 | – |
| CCNC(=O)c1ncc(Oc2cc(C(=O)Nc3ccn(C)n3)cc3c2CC(C)(C)O3)cc1F [Example 177, 5-[2,2-Dimethyl-6-(1-methyl-1H-pyrazol-3-ylcarbamoyl)-2,3-dihydro-benzofuran-4-yloxy]-3-fluoro-pyridine-2-carboxylic acid ethylamide] | 204 | 350 | 189 | – |
| CC(C)Oc1cc(C(=O)Nc2ccn(C)n2)cc2c1CC(COc1ccccc1)O2 (centres unmarked) [Example 214, 4-Isopropoxy-2-phenoxymethyl-2,3-dihydro-benzofuran-6-carboxylic acid (1-methyl-1H-pyrazol-3-yl)-amide] | 12 | – | – | – |
| CC1Cc2c(Oc3ccc(S(C)(=O)=O)cc3)cc(C(=O)Nc3ccn(C)n3)cc2O1 (single isomer, unassigned; (+)) [Example 13, (+)4-(4-Methanesulfonyl-phenoxy)-2-methyl-2,3-dihydro-benzofuran-6-carboxylic acid(1-methyl-1H-pyrazol-3-yl)-amide] | – | 1800 | – | % Activation at 10 uM [1]: 182%; % Max Activation: 196% |
| Cc1ccc(NC(=O)c2cc(Oc3ccc(S(C)(=O)=O)cc3)c3c(c2)C(=O)N(C)C3)nc1 [Example 376, 2-Methyl-N-(5-methylpyridin-2-yl)-7-(4-(methylsulfonyl)-phenoxy)-3-oxoisoindoline-5-carboxamide] | – | – | – | EC50 (1 mM ATP, room temperature): 6400 nM; activation at 10 µM [2]: 73.1%; Emax (1 mM ATP): 90% |
| CC1(C)Cc2c(Oc3ccc(S(C)(=O)=O)cc3)cc(C(=O)Nc3cnccn3)cc2O1 [Example 17, 4-(4-Methanesulfonyl-phenoxy)-2,2-dimethyl-2,3-dihydrobenzofuran-6-carboxy-lic acid pyrazin-2-ylamide] | 161 | 510 | 165 | – |
| Cc1ccc(NC(=O)c2cc(Oc3ccc(S(C)(=O)=O)cc3)cc3c2CC(C)O3)nc1 (centres unmarked) [Example 2, 6-(4-Methanesulfonyl-phenoxy)-2-methyl-2,3-dihydrobenzofuran-4-carboxylic acid(5-methyl-pyridin-2-yl)-amide] | 113 | 5300 | 152 | – |
| CN(C)C(=O)c1ccc(Oc2cc(C(=O)Nc3cc[nH]n3)cc3c2CC(C)(C)O3)cc1 [Example 152, 4-(4-Dimethylcarbamoyl-phenoxy)-2,2-dimethyl-2,3-dihydro-benzofuran-6-carboxylic acid (1H-pyrazol-3-yl)-amide] | 90.7 | 850 | 98 | – |
| CN(C)Cc1ccc(Oc2cc(C(=O)Nc3ccn(C)n3)cc3c2CC(C)(C)O3)c(F)c1 [Example 39, 4-(4-Dimethylaminomethyl-2-fluoro-phenoxy)-2,2-dimethyl-2,3-dihydro-benzofuran-6-carboxylic acid(1-methyl-1H-pyrazol-3-yl)-amide] | 105 | 2000 | 133 | – |
| COCC1Cc2c(Oc3ccc(C(=O)N4CCC4)cc3)cc(C(=O)Nc3ccn(C)n3)cc2O1 (single isomer, unassigned; (-)) [Example 209, (−)-4-[4-(Azetidine-1-carbonyl)-phenoxy]-2-methoxymethyl-2,3-dihydro-benzofuran-6-carboxylic acid (1-methyl-1H-pyrazol-3-yl)-amide] | – | 380 | – | % Activation at 10 uM [1]: 87%; % Max Activation: 96% |
| CN(C)C(=O)c1ccc(Oc2cc(C(=O)Nc3cnccn3)cc3c2CC(C)(C)O3)cc1 [Example 151, 4-(4-Dimethylcarbamoyl-phenoxy)-2,2-dimethyl-2,3-dihydro-benzofuran-6-carboxylic acid pyrazin-2-ylamide] | 98.1 | 470 | 97 | – |
| Cn1ccc(NC(=O)c2cc(Oc3ccc(S(C)(=O)=O)cc3)cc3c2CC(C)(C)O3)n1 [Example 199, 6-(4-Methanesulfonyl-phenoxy)-2,2-dimethyl-2,3-dihydro-benzofuran-4-carboxylic acid (1-methyl-1H-pyrazol-3-yl)-amide] | 40.3 | > 10000 | – | – |
| Cn1ccc(NC(=O)c2cc(Oc3ccc(-c4ncon4)cc3)c3c(c2)OC(C)(C)C3)n1 [Example 187, 2,2-Dimethyl-4-(4-[1,2,4]oxadiazol-3-yl-phenoxy)-2,3-dihydro-benzofuran-6-carboxylic acid (1-methyl-1H-pyrazol-3-yl)-amide] | 178 | > 10000 | – | – |
| CC(=O)N1CC(Oc2cc(C(=O)Nc3cnn(C)n3)cc3c2CC(C)(C)O3)C1 [Example 195, 4-(1-Acetyl-azetidin-3-yloxy)-2,2-dimethyl-2,3-dihydro-benzofuran-6-carboxylic acid (2-methyl-2H-[1,2,3]triazol-4-yl)-amide] | 98.9 | > 10000 | – | – |
| CCNC(=O)c1ccc(Oc2cc(C(=O)Nc3ccn(C)n3)cc3c2CC(C)(C)O3)cc1F [Example 70, 4-(4-Ethylcarbamoyl-3-fluoro-phenoxy)-2,2-dimethyl-2,3-dihydro-benzofuran-6-carboxylic acid(1-methyl-1H-pyrazol-3-yl)-amide] | 132 | 150 | 118 | – |
| CNC(=O)c1c(F)cc(Oc2cc(C(=O)Nc3ccn(C)n3)cc3c2CC(C)(C)O3)cc1F [Example 400, 4-(3,5-Difluoro-4-methylcarbamoyl-phenoxy)-2,2-dimethyl-2,3-dihydro-benzofuran-6-carboxylic acid(1-methyl-1H-pyrazol-3-yl)-amide] | – | – | – | EC50 (1 mM ATP, room temperature): 140 nM; activation at 10 µM [2]: 192%; Emax (1 mM ATP): 177% |

More lines, main results first:

| activation at 10 µM [1] [%] | EC50 (GK activation) [nM] | Emax [%] | SMILES | further results |
| --- | --- | --- | --- | --- |
| 6.4 | – | – | CN(C)C(=O)c1ccc(Oc2cc(C(=O)Nc3ccn(C)n3)cc3ccsc23)cc1F [Example 366, 7-(4-(Dimethylcarbamoyl)-3-fluorophenoxy)-N-(1-methyl-1H-pyrazol-3-yl)benzo[b]thiophene-5-carboxamide] | – |
| 13.8 | – | – | CC(C)Oc1cc(C(=O)Nc2ccccn2)cc2c1CC(Cc1ccccc1)O2 (centres unmarked) [Example 220, 2-Benzyl-4-isopropoxy-2,3-dihydro-benzofuran-6-carboxylic acid pyridin-2-ylamide] | – |
| 57.5 | > 10000 | – | Cn1ccc(NC(=O)c2cc(Oc3ccc(S(C)(=O)=O)cc3)c3occc3c2)n1 [Example 332, N-(1-Methyl-1H-pyrazol-3-yl)-7-[4-(methylsulfonyl)phenoxy]-1-benzofuran-5-carboxamide] | – |
| 69.2 | 1500 | 89 | C=C(C)c1cc2c(C(=O)Nc3ccc(C)cn3)cc(OC(C)C)cc2o1 [Example 346, 6-Isopropoxy-N-(5-methylpyridin-2-yl)-2-(prop-1-en-2-yl)benzofuran-4-carboxamide] | – |
| 84.3 | 430 | 105 | COc1cnc(NC(=O)c2cc(Oc3ccc(C(=O)N(C)C)nc3)c3cc(C)oc3c2)cn1 [Example 279, 5-(6-((5-Methoxypyrazin-2-yl)carbamoyl)-2-methylbenzofuran-4-yloxy)-N,N-dimethylpicolinamide] | – |
| 80.5 | 1300 | 79 | COC(=O)c1ccc(NC(=O)c2cc(Oc3ccc(S(C)(=O)=O)cc3)c3cc(C)oc3c2)nc1 [Example 264, Methyl 6-(2-methyl-4-(4-(methylsulfonyl)phenoxy)benzofuran-6-carboxamido)nicotinate] | – |
| 72.3 | 230 | 81 | COCc1cc2c(Oc3ccc(S(C)(=O)=O)cc3)cc(C(=O)Nc3ccc(C)cn3)cc2o1 [Example 309, 2-(Methoxymethyl)-N-(5-methylpyridin-2-yl)-4-[4-(methylsulfonyl)-phenoxy]-1-benzofuran-6-carboxamide] | – |
